From paper PMC9516332 (Frontiers in Oncology, 2022) come the findings set out here.

Holding throughout (assay): Kinase panel profiling at 1 µmol/L (MSA or IMAP), percentage inhibition
Type in all cases: biochemical

The target of experiment [1] is panel of 255 wild-type kinases (Homo sapiens, UniProt Q08345). Conditions: kinase DDR1; 1 µmol/L single concentration; read-out: %-inhibition at 1 µmol/L, DDR1.
Experiment [2] concerns the target panel of 255 wild-type kinases (Homo sapiens, UniProt Q9Y3S1). Conditions: kinase WNK2; 1 µmol/L single concentration; read-out: %-inhibition at 1 µmol/L, WNK2.
The target in experiment [3] is panel of 255 wild-type kinases (Homo sapiens, UniProt P14616). As to conditions: kinase IRR; 1 µmol/L single concentration; read-out: %-inhibition at 1 µmol/L, IRR.
Experiment [4] has as its target T1, panel of 255 wild-type kinases (Homo sapiens, UniProt P21709).
T1 sequence (P21709 26-976): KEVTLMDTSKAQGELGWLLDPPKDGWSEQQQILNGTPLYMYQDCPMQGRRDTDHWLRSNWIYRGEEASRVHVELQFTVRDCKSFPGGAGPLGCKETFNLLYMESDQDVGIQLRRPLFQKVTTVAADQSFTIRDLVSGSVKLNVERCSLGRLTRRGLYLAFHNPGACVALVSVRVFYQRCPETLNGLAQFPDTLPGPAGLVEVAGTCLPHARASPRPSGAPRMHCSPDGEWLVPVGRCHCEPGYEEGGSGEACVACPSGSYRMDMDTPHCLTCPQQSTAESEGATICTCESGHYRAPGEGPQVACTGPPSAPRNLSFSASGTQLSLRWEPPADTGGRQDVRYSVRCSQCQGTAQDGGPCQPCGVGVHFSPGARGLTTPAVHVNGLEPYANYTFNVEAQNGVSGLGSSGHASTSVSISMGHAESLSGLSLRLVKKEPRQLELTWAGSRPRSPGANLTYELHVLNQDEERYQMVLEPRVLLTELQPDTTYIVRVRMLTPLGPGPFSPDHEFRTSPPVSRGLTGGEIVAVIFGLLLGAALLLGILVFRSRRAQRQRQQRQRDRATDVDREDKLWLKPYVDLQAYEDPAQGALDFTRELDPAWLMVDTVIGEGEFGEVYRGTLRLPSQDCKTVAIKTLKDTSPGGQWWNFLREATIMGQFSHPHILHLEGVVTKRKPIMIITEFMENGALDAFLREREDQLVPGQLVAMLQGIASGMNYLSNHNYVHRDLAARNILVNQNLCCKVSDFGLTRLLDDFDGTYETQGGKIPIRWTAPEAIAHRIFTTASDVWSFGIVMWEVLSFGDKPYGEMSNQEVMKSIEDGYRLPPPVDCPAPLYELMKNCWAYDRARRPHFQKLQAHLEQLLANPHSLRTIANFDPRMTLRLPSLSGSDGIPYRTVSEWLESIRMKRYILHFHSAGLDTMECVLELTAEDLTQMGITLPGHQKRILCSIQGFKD
Conditions: kinase EPHA1; 1 µmol/L single concentration; read-out: %-inhibition at 1 µmol/L, EPHA1.

Experiment [5] has as its target panel of 255 wild-type kinases (Homo sapiens, UniProt Q8IY84). As to conditions: NIM1K; 1 µmol/L single concentration; read-out: %-inhibition, NIM1K.
Experiment [6] deals with panel of 255 wild-type kinases (Homo sapiens, UniProt O60674). Conditions: kinase JAK2; 1 µmol/L single concentration; read-out: %-inhibition at 1 µmol/L, JAK2.
In experiment [7] the target is panel of 255 wild-type kinases (Homo sapiens, UniProt P05771). As to conditions: kinase PKCβ1; 1 µmol/L single concentration; read-out: %-inhibition at 1 µmol/L, PKCβ1.
For experiment [8], the target named is panel of 255 wild-type kinases (Homo sapiens, UniProt Q13164). Conditions: kinase Erk5; 1 µmol/L single concentration; read-out: %-inhibition at 1 µmol/L, Erk5.
For experiment [9], the target named is panel of 255 wild-type kinases (Homo sapiens, UniProt O43683). As to conditions: BUB1/BUB3 kinase assay; 1 µmol/L single concentration; read-out: %-inhibition BUB1/BUB3.
Experiment [10] has as its target panel of 255 wild-type kinases (Homo sapiens, UniProt Q13554). Conditions: CaMK2β kinase assay; 1 µmol/L single concentration; read-out: %-inhibition CaMK2β.
The target of experiment [11] is T2, panel of 255 wild-type kinases (Homo sapiens, UniProt O60285).
T2 sequence (O60285 1-661): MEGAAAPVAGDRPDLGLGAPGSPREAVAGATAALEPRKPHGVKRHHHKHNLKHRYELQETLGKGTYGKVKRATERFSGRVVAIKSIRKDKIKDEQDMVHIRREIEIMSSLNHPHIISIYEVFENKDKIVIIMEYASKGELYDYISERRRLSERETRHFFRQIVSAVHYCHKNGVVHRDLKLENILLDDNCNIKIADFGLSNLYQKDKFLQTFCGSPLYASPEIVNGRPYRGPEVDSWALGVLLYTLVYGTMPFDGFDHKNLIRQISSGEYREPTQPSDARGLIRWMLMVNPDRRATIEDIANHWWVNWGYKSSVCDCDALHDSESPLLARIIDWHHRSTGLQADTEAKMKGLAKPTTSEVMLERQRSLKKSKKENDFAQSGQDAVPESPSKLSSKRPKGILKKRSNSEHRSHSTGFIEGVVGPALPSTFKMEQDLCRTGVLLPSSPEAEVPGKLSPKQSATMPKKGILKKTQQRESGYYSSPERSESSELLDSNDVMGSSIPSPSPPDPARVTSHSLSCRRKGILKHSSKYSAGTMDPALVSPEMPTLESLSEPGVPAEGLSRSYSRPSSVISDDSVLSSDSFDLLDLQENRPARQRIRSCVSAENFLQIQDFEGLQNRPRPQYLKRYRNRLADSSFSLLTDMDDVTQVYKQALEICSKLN
As to conditions: NuaK1; 1 µmol/L single concentration; read-out: %-inhibition, NuaK1.

Experiment [12] deals with T3, panel of 255 wild-type kinases (Homo sapiens, UniProt Q96PN8).
T3 sequence (Q96PN8 1-268): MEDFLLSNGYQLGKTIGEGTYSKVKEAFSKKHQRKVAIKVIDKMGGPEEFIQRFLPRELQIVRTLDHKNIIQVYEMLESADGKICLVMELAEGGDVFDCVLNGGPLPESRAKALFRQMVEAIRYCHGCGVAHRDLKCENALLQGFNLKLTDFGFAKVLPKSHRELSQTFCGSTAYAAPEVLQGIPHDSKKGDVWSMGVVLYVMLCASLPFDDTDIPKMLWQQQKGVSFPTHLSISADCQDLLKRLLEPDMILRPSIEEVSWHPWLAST
As to conditions: kinase TSSK3; 1 µmol/L single concentration; read-out: %-inhibition at 1 µmol/L, TSSK3.

With `COC(=O)N[C@@H](C)CNc1nccc(-c2cn(C(C)C)nc2-c2cc(Cl)cc(NS(C)(=O)=O)c2F)n1` [encorafenib], the inhibition at 1 µM in [1] is 0.442%; in [2] it was -0.751%; in experiment [3], -3.65%; in [4] it was 5.42%; in experiment [5], -12%; in experiment [6] it was 2.62%. In addition, the inhibition at 1 µM in experiment [7] was -1%; in experiment [8], 9%; in experiment [9], 6%; in [10], 4.23%; in [11] it was -0.237%; in [12], 4%.
For `CN1CCN(c2ccc(C(=O)Nc3n[nH]c4ccc(Cc5cc(F)cc(F)c5)cc34)c(NC3CCOCC3)c2)CC1` [entrectinib], the inhibition at 1 µM in [1] was 99%; in experiment [2] it was 2.24%; in [3] it was 100%; in [4], 88%; in [5], -1.5%; in [6], 100%. Also, the inhibition at 1 µM is 12% in experiment [7]; 13% in [8]; -5.38% in experiment [9]; 13% in experiment [10]; 102% in experiment [11]; 5.68% in [12].
As to `CCc1nc(C(N)=O)c(Nc2ccc(N3CCC(N4CCN(C)CC4)CC3)c(OC)c2)nc1NC1CCOCC1` [gilteritinib], the inhibition at 1 µM is 99% in [1]; -1% in experiment [2]; 100% in experiment [3]; 99% in experiment [4]; 29% in experiment [5]; 95% in experiment [6]. In addition, the inhibition at 1 µM in [7] is 19%; in experiment [8], 38%; in [9], 54%; in experiment [10] it was 24%; in [11], 98%; in [12], 11%.
As for `O=C(Nc1cnn2ccc(N3CCC[C@@H]3c3cc(F)ccc3F)nc12)N1CC[C@H](O)C1` [larotrectinib], the inhibition at 1 µM in experiment [1] is 41%; in experiment [2], -2%; in experiment [3], 1.69%; in experiment [4], -2.54%; in experiment [5], -1.85%; in experiment [6], 46%. In addition, the inhibition at 1 µM in experiment [7] is -2.11%; in experiment [8], 1.26%; in experiment [9], -6%; in experiment [10], 0.902%; in experiment [11] it was 13%; in experiment [12], 0.55%.
Turning to `CCN1C(=O)N(c2c(F)c(OC)cc(OC)c2F)Cc2cnc3[nH]c(CN4CCOCC4)cc3c21` [pemigatinib], the inhibition at 1 µM in [1] was 41%; in experiment [2] it was -1.88%; in [3] it was 8%; in experiment [4], -4%; in experiment [5], -1.5%; in [6], -2.85%. Besides, the inhibition at 1 µM was 0.544% in [7]; 97% in experiment [8]; -3.37% in experiment [9]; 9% in experiment [10]; -2.15% in experiment [11]; -0.468% in experiment [12].
In the case of `FC(F)(F)c1ccc(CNc2ccc(Cc3c[nH]c4ncc(Cl)cc34)cn2)cn1` [pexidartinib], the inhibition at 1 µM in experiment [1] is 84%; in experiment [2] it was -1.8%; in experiment [3], 14%; in experiment [4] it was 7%; in experiment [5], -1.06%; in experiment [6], 35%. For the same compound, the inhibition at 1 µM stood at 4.22% in experiment [7]; 10% in experiment [8]; 5.7% in [9]; 3% in experiment [10]; 8% in experiment [11]; 10% in experiment [12].
On to `CO[C@]1(C(=O)N[C@@H](C)c2ccc(-n3cc(F)cn3)nc2)CC[C@H](c2nc(C)cc(Nc3cc(C)[nH]n3)n2)CC1` [pralsetinib], for which the inhibition at 1 µM in experiment [1] was 98%; in experiment [2], -1%; in [3], 10%; in [4] it was 66%; in experiment [5], 0.843%; in [6] it was 98%. Further, the inhibition at 1 µM in experiment [7] was 2.58%; in experiment [8], 0.775%; in [9], -0.908%; in experiment [10] it was -0.895%; in [11], 91%; in [12] it was -5%.
Regarding `CCn1c(=O)c(-c2cc(NC(=O)Nc3ccccc3)c(F)cc2Br)cc2cnc(NC)cc21` [ripretinib], the inhibition at 1 µM in experiment [1] is 90%; in experiment [2], -1.64%; in experiment [3] it was 4.5%; in experiment [4], 78%; in [5], 0.056%; in [6], 63%. The inhibition at 1 µM is 1.06% in experiment [7]; 0.452% in [8]; 2.76% in experiment [9]; 1.19% in [10]; 4.32% in experiment [11]; -0.0717% in experiment [12].
